Columns and labels:
THP-1 macrophages = assay: PGD2 release by THP-1 macrophages, proxy for flush inducing activity; type: cell-based; conditions: compared with niacin
Description: THP-1 cells were grown in RPMI complete media • 2×10^6 cells/well in 24 well flask were seeded in serum free media containing […] of PMA. Cells were allowed to differentiate into macrophages for 12 hours • The media was replaced with complete RPMI media and incubation continued for 5 hours • After incubation, media was aspirated and cells were treated with niacin and niacin analogs in 1 mL of serum free RPMI media. • Incubated for 30 min. […] of media was collected, PGD2 secreted was derivitized into stable MOX derivative. • PGD2 in the sample was assayed by using PGD2 assay kit from Cayman chemicals. Incorporation By Reference

Hep-G2 cells = assay: HDL uptake by Hep-G2 cells (125I-labelled HDL), proxy for HDL-raising activity; type: cell-based; conditions: compared with niacin
Description: • Split HepG2 cells in 24 well plates 2˜3 days prior to niacin treatment, 0.5 mL complete DMEM media is added per well • Cells were pre-incubated with niacin (1 mM) for 24˜48 h • Wash HepG2 cells 3 times with PBS • Incubate HepG2 cells in […] medium C(DMEM containing 5 mg/mL fatty acid free BSA), containing ^125I-labelled HDL ([…] with specificity ofo 300-500 cpm/ng HDL protein. For 16 h • Aspirate the media and wash the cells with 0.5 mL of 0.1 mg/mL BSA-PBS twice, and with PBS twice • Cells were digested in […] of 1 N NaOH at room temperature overnight • […] of cell lysate was used for gamma-counting • […] of cell lysate was used for protein assay by BCA method • HDL uptake activity is expressed as “cpm of ^125I-HDL uptake/mg of cell protein.

[1] = humans, daily oral doses of 2-3 g; cited from earlier work

SMILES	induction of PGD2 release / flush inducing activity relative to niacin (THP-1 macrophages)	reduction of HDL uptake / HDL-raising activity relative to niacin (Hep-G2 cells)	effect on Lp(a) [1]
O=C(O)C/C=C/c1cccnc1 [Compound 2035, 4-pyridin-3-yl-but-3-enoic acid]	very much less ability to induce PDG2 release	essentially as well as niacin	–
O=C(O)c1cccnc1 [niacin]	–	–	reduce Lp(a)

Source: patent US9193708B2, “Non-flushing niacin analogues, and methods of use thereof” (Trustees of Tufts College, priority 2006, dated 2015)
